Where “and” joins values, the source holds several entries; their conditions need not be identical. Equal entries are not always repeated.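 48-hour exposure; five concentrations; linearly interpolated endpoints. GI50 = concentration required for 50% inhibition of growth. TGI denotes the concentration required for complete inhibition of growth.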 *1 amine or outer side, *2 acyl side, *3 side chain or, on linkers, in order; H or OH if unused. Where a SMILES comes first, the peptide text is derived from it. Bridges are numbered along the chain shown (N, C = ends). Roman numbers before positions name the chains, in order. [ ]: non-standard residue; d: D form. Actinocin(9to1) = Cc1c2oc3c(C)ccc(C(=O)[*:1])c3nc-2c(C(=O)[*:2])c(N)c1=O; NMeF = CN[CH](Cc1ccccc1)C(=O)O; Sar = CNCC(=O)O
Legend:
Assay in all cases: inhibition of tumour cell growth, NCI panel, 48 h
A498 renal = system: A498 renal
NCI-H522 lung = system: NCI-H522 lung
MCF7 breast = system: MCF7 breast
HCT-116 colon = system: HCT-116 colon
SW-620 colon = system: SW-620 colon
EKVX NSCLC = system: EKVX NSCLC
SF-268 CNS = system: SF-268 CNS
OVCAR-3 ovarian = system: OVCAR-3 ovarian
IGROV1 ovarian = system: IGROV1 ovarian
SNB-19 CNS = system: SNB-19 CNS

| SMILES | GI50 (A498 renal) [µM] | TGI (A498 renal) | GI50 (NCI-H522 lung) [µM] | TGI (NCI-H522 lung) [µM] | GI50 (MCF7 breast) [µM] | TGI (MCF7 breast) [µM] | GI50 (HCT-116 colon) [µM] | TGI (HCT-116 colon) | GI50 (SW-620 colon) [µM] | TGI (SW-620 colon) | GI50 (EKVX NSCLC) | TGI (EKVX NSCLC) | GI50 (SF-268 CNS) [µM] | TGI (SF-268 CNS) [µM] | GI50 (OVCAR-3 ovarian) [µM] | TGI (OVCAR-3 ovarian) | GI50 (IGROV1 ovarian) | TGI (IGROV1 ovarian) [µM] | GI50 (SNB-19 CNS) | TGI (SNB-19 CNS) |
| --- | --- | --- | --- | --- | --- | --- | --- | --- | --- | --- | --- | --- | --- | --- | --- | --- | --- | --- | --- | --- |
| Cc1cc(I)cc(CN(C)CCCN2CCN(C)CC2)c1O | 23.6 | 54.2 µM | 46.4 | 97.1 | 26 | 82.7 | 12.6 | > 86.1 µM | 24.2 | > 67.7 µM | 79.3 µM | > 100 µM | 35 | > 100 | > 64.5 | > 100 µM | 40.5 µM | > 100 | > 100 µM | > 100 µM |
| Cc1c2oc3c(C)ccc(C(=O)NC4C(=O)NC(C(C)C)C(=O)N5CCCC5C(=O)N(C)CC(=O)N(C)C(Cc5ccccc5)C(=O)OC4C)c3nc-2c(C(=O)NC2C(=O)NC(C(C)C)C(=O)N3CCCC3C(=O)N(C)CC(=O)N(C)C(Cc3ccccc3)C(=O)OC2C)c(N)c1=O (stereo not given) (I: TVP[Sar][NMeF] / II: TVP[Sar][NMeF]; ester I:1-I:C, II:1-II:C; linker I:N-II:N via Actinocin(9to1); configuration not given here) |  | < 0.01 µM and 0.0378 µM | 0.00155 | 0.0201 | 0.00126 | 0.0136 | < 0.01 | 0.194 µM and > 1 µM |  | 1.27 µM and 0.139 µM | < 0.01 µM and 0.0389 µM | 0.0931 µM and > 0.603 µM |  | > 0.674 |  | < 0.01 µM and 0.0453 µM | < 0.01 µM and 0.0028 µM |  | < 0.01 µM and 0.00378 µM | 0.118 µM and > 0.381 µM |
| CC(=O)c1nc2ccccc2n1CC(=O)c1cccc(Cl)c1 | 6.52 | 88.6 µM | 0.0846 | 0.719 | 0.335 | > 100 | 0.401 | > 100 µM | 0.278 | > 100 µM | 4.33 µM | > 100 µM | 1.12 | > 71.7 | 0.239 | > 100 µM | 0.543 µM | > 100 | 0.808 µM | > 100 µM |
| COc1ccc(Cn2cc3c(c2-c2cc(OC)c(OC)c(OC)c2)CCc2cnoc2-3)cc1 | 0.162 | 0.726 µM | 0.107 | 1.17 | 0.163 | > 100 | 0.386 | > 100 µM | 0.314 | > 100 µM | 0.397 µM | > 100 µM | 1.18 | > 100 | 0.189 | 0.484 µM | 0.394 µM | > 100 | 0.502 µM | > 100 µM |
| CC(=O)/C(=C/N1CCNC1=S)C(=O)Nc1ccccc1C |  | > 100 µM |  | > 100 |  | > 100 |  | > 100 µM |  | > 100 µM |  | > 100 µM |  | > 100 |  | > 100 µM |  | > 100 |  | > 100 µM |
| CN(C)CCCn1c(-c2nonc2N)nc2cnccc21 | 12 | > 25 µM | > 25 | > 25 | > 25 | > 25 | > 25 | > 25 µM | > 25 | > 25 µM | > 25 µM | > 25 µM | > 25 | > 25 | > 25 | > 25 µM | > 25 µM | > 25 | > 25 µM | > 25 µM |

Reference: PubChem BioAssay (NCI)
